Assays:
[1] = tested on: transportin-1 (TNPO1); conditions: cited from earlier work
Source text: CIRBP, a nuclear protein known for its role in regulating mRNA stability and DNA repair, translocates from the nucleus to the cytoplasm under stress condition, forming stress granules[31],[32]. It is a typical RNA-binding pro ... || page 4: REVIEWER COMMENTS Comments are highlighted with a green background Reviewer #1 (Remarks to the Author) TNPO3 is an important karyopherin involved in some human pathologies and HIV-1 infection. Its best characterized biological function is in nuclear import of SR and SR-like repeat containing proteins, such as SFRS1 and CPSF6. […] Intriguingly, TNPO3 engages these alternative NLSs via the same region, which it ...

[2] = target: T1, TNPO3 WT (Homo sapiens, UniProt Q9Y5L0); test: ITC, ligand titrated into TNPO3 WT; format: binding; conditions: ITC, TNPO3 WT
T1 sequence (Q9Y5L0 1-923): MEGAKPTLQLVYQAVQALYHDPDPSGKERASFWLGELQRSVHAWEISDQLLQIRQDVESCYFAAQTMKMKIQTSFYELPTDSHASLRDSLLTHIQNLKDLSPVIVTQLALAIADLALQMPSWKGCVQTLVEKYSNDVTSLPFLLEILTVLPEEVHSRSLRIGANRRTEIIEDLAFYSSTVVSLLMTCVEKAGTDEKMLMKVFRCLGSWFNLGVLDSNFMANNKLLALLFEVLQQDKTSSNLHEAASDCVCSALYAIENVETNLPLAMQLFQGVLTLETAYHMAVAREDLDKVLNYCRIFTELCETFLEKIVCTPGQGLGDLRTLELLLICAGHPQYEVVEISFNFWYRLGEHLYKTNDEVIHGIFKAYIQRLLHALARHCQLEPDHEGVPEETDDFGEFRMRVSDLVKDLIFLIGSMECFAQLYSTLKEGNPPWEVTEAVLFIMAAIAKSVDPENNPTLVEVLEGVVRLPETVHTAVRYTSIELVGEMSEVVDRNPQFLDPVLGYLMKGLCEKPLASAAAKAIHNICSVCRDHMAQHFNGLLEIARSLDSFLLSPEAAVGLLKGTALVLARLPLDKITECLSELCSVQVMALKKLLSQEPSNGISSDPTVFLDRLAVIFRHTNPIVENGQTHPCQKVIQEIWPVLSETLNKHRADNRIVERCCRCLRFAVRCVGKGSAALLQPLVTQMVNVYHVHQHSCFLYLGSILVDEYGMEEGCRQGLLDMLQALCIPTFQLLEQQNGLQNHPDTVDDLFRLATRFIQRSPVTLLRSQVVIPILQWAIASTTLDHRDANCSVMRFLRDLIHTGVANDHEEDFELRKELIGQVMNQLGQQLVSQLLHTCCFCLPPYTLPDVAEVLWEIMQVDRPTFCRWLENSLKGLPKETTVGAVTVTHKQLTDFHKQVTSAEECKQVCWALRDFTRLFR
Method: (§1) ITC has been performed by a Malvern Microcal VP-ITC at 25 °C for all binding studies. Samples have been dissolved in Tris buffer containing 50 mM Tris–HCl, 150 mM NaCl, 2 mM TCEP, and 0.04% NaN3 at pH 7.5. Binding studies of CIRBP^RSY and SRSF1^RS were performed with TNPO3 WT, and studies of CIRBP (157–172) and its mutants/phosphorylations were performed with TNPO3 C511A, respectively. Injection has been carried out by a syringe containing ligand solution of 100 μM, which adds ligand step-wise into the cell containing 10 μM TNPO3 during 28 injections of 10 μL each. Data analysis, curve fitting, and calculation of Kd, ΔH, and ΔS have been carried out using Origin-based 7.0 software provided by the manufacturer. All replicated ITC data are shown in Supplementary Fig. 6 and Supplementary Table 1.

[3] = tested on: TNPO3; test: NMR binding studies with TNPO3 (1H-15N HSQC, 1H-13C HMQC, 1H 1D, STD); parameters: species or system human
Method: All NMR studies for TNPO3 were carried out using the wild type protein. Protein samples for ^1H-^13C HMQC were prepared at a concentration of 100 μM and equilibrated in a buffer containing 50 mM Tris–HCl, pH 6.7, 150 mM NaCl, 2 mM TCEP and 10% D2O. Spectral acquisitions for TNPO3 free and in complex with CIRBP^RSY and SRSF1^RS, respectively were performed at 298 K on a 700 MHz Bruker Avance III NMR spectrometer equipped with a TCI triple-resonance cryoprobe. The pulse program was sfhmqcf2gpph and the spectra were recorded with 32 scans, interscan delay of 1 s, 160 points in F1, 1024 points in F2, 5283.879 Hz spectral width in F1, and 11,160.714 Hz spectral width in F2. Spectra were processed using Topspin 4.1.3.
Spectral acquisitions for TNPO3 free and in complex with mCIRBP^RSY, pCIRBP^RSY, and pSRSF1^RS, respectively, were performed at 298 K on a 600 MHz Bruker Avance Neo NMR spectrometer equipped with a TXI 600S3 probehead. The pulse program was hmqcgpphwg and the spectra were recorded with 64 scans, interscan delay of 1 s, 200 points in F1, 1024 points in F2, 4545.455 Hz spectral width in F1, and 7812.500 Hz spectral width in F2. Spectra were processed using Topspin 4.3.0.
For ^1H-^15N HSQC spectra, protein samples were equilibrated in a buffer containing 50 mM Tris–HCl, pH 6.7, 150 mM NaCl, 2 mM TCEP, 0.04% NaN3, and 10% D2O (with additional 20 mM MgCl2 for CIRBP phosphorylation kinetics). Data were recorded at 298 K on the 600 MHz Bruker Avance Neo NMR spectrometer equipped with a TXI 600S3 probehead. The pulse program was hsqcetfpf3gpsi and was recorded with 8-16 scans, interscan delay of 1 s, 128 points in F1, 1024 points in F2, 1949.318 Hz spectral width in F1, and 9615.385 Hz spectral width in F2. Spectra were processed using Topspin 4.3.0.

[4] = target: T2, TNPO3 C511A (Homo sapiens, UniProt Q9Y5L0, C511A); test: ITC, ligand titrated into TNPO3 C511A; format: binding; conditions: TNPO3 C511A
T2 construct: full-length (FL) WT human TNPO3 were generated by synthesizing codon-optimized DNA fragments; His6 (N, cleaved yes); protein A (N, cleaved yes); made in house; host or cells: Escherichia coli BL21-(DE3) Star
T2 sequence (Q9Y5L0 1-923 C511A): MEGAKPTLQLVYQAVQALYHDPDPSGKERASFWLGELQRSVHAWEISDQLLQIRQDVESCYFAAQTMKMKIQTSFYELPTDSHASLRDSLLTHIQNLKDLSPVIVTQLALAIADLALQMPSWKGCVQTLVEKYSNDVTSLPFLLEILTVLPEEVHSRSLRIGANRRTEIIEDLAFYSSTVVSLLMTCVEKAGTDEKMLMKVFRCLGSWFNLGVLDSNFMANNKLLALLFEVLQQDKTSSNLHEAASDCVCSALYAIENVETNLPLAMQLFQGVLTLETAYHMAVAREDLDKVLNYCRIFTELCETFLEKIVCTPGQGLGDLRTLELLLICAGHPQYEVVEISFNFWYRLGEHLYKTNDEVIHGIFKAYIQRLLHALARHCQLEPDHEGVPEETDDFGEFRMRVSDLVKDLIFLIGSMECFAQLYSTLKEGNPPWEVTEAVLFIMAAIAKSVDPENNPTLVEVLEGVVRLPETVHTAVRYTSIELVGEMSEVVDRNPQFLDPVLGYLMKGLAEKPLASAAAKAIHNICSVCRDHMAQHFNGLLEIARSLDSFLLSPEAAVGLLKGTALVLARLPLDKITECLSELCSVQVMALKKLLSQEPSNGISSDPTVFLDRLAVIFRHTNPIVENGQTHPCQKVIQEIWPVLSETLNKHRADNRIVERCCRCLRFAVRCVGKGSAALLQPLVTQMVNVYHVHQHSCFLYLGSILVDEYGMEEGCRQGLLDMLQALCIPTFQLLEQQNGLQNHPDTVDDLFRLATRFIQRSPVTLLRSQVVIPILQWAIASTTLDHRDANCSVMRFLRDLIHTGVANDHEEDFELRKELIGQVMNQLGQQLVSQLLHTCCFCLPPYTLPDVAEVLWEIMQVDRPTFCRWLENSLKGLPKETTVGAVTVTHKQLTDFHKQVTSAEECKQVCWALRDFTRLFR
Method: as §1

[5] = target: TNPO3; conditions: SAXS, monomer/dimer equilibrium; read-out: dissociation constant of TNPO3 dimerization in solution; cited from earlier work
Source text: We next aimed to gain insight into the structural basis for TNPO3 recognition of RSY-NLS and obtained crystals of TNPO3 C511A bound to CIRBP^RSY that diffracted X-rays to 2.94 Å resolution. This TNPO3 mutant was used for the determination of the 3D X-ray structure of the TNPO3-SRSF1 complex and increases TNPO3 stability. […] TNPO3 forms a dimer in the asymmetric unit of the crystal structure, as previously observed ... || page 9: Figure 2: Is TNPO3 a monomer in solution? In order for the reader to understand where are the additional contact points described in Sup Fig 2, a global view of the different contact points would be helpful. […] Out of the additional contact points in the crystal structure, the intermolecular salt bridge of E304 with K877 is the only contact which we could observe in both directions (chain A – chain B and vice versa). We in ...

| Substance | fold lower binding affinity for TNPO1 than for TNPO3 [1] | ΔS ([2]; replicate 1 (rep1)) | ΔS ([2]; replicate 2 (rep2)) | change of peptide 1H 1D NMR signals with sub-stoichiometric TNPO3 ([3]; 100 µM RSY regions and 10 µM TNPO3 (peer review reply)) | chemical shift perturbations of TNPO3 methyl groups upon ligand addition (1H,13C HMQC) ([3]; 100 µM [IM-methyl 13C] labeled TNPO3, one stoichiometric equivalent of ligand, 298 K, pH 6.7) | ΔS ([4]; rep1, reference for alanine mutation) | ΔS ([4]; rep2, reference for alanine mutation) | Kd [5] |
| --- | --- | --- | --- | --- | --- | --- | --- | --- |
| H-GSRDYYSSRSQSGGYSDRSSGGSYRDSYDSYATHNE-OH [CIRBP^RSY] | approximately 70 | –101 cal/mol/deg | –192 cal/mol/deg | slight decrease of peptide signal intensity | led to CSPs of several TNPO3 ^1H,^13C cross-peaks | –124 cal/mol/deg | –242 cal/mol/deg | – |
| TNPO3: Transportin 3, nuclear import receptor; here its own monomer/dimer equilibrium | – | – | – | – | – | – | – | 8.3 ± 1 µM |

Reference: PMC12075686, “Structural basis of phosphorylation-independent nuclear import of CIRBP by TNPO3” (Nature Communications, 2025)
